Experimental data from US20160082109A1, “COPOLYMER AND NANOPARTICLES OBTAINED THEREFROM FOR DRUG DELIVERY” (FONDAZIONE ISTITUTO ITALIANO DI TECNOLOGIA, priority 2013, published 2016).

Assays:
bEND.3 cells = assay: Confocal microscopy of nanoparticle internalization and RhB delivery; type: cell-based, mice; details: 6 h; nanoparticles 10 μg/ml, free RhB 113 ng/ml
Method: Immortalized endothelial cells of mice, bEND.3 (American Type Culture Collection, Manassas, Va., USA) were cultivated in a DMEM medium with high levels of glucose in the presence of 10% of FBS, L-glutamine 2 mM, 1000 U/ml penicillin and 1 mg/ml of streptomycin. The cells split from 2 to 20 times were kept in a humidified incubator for cell cultures at 37° C. and 5%, CO2. This cell line was chosen because it is a suitable model for providing an endothelial barrier. […] The free rhodamine (113 ng/ml, the same quantity of rhodamine administered with the nanoparticles), was used as negative control for the absorption test for nanoparticles loaded with rhodamine B. […] Lysotracker-red-[…] 50 nM was added to mark the lysosomes and verify the intracellular localization of the nanoparticles. To understand the release potential by the nanoparticles, the internalization of nanoparticles loaded with RhB by bEND.3 cells was compared with the detection of fluorescent RhB not loaded on nanoparticles (FIGS. 15a and 15b respectively).

[1] = type: physicochemical
Method: The tests were conducted on 2±0.3 mg of polymer, placed in polypropyplene vials filled with 1 ml of deionized H2O and kept in a thermostatic bath at 37° C. for 33 days. At regular intervals the samples were withdrawn, the degradation medium was separated for evaluation of the pH while the degraded polymers were dried in a ventilated stove at 50° C. for 3 h and then analysed by gel permeation chromatography (GPC).
The pH measurements were conducted on the degradation means (deionized H2O) after pre-set times. In particular, the degradation means were withdrawn from the vials containing the polymer, prepared as reported in example 1, during the degradation tests in the previous example and the measurement was performed using a pH-meter on the samples just taken at a temperature of 37° C.

Compound	RhB internalization in cells (bEND.3 cells)	pH of the degradation means (lower values / end of the test) [1]
CCN(CC)c1ccc2c(-c3ccccc3C(=O)O)c3ccc(=[N+](CC)CC)cc-3oc2c1.[Cl-] [Free RhB, rhodamine B]	not observed	
polycaprolactone [PCL]		comparable
